According to patent US20250250251A1, “PIPERIDINYLPYRIDINYLCARBONITRILE DERIVATIVES AS INHIBITORS OF GLUTAMINYL-PEPTIDE CYCLOTRANSFERASE AND GLUTAMINYL-PEPTIDE CYCLOTRANSFERASE LIKE PROTEIN” (Boehringer Ingelheim International GmbH, priority 2024, published 2025):
Like-named read-outs stand apart in the source and are kept apart here.

Columns and labels:
QPCTL = biological target: T1, QPCTL (Homo sapiens, UniProt Q9NXS2); test: Assay A: biochemical QPCTL activity assay (MALDI-TOF MS, CD47 peptide substrate); details: read-out: Inhibition of QPCTL: IC50
T1 construct: made in house
Protocol: (§1) QPCT or QPCTL dependent conversion of N-terminal glutamine to pyroglutamate of CD47 was monitored via MALDI-TOF MS. Test compounds were dissolved in 100% DMSO and serially diluted into clear 1,536-well microtiter plates. Enzymatic reactions were set up in assay buffer containing 20 mM Tris pH 7.5, 0.1 mM TCEP, 0.01% BSA, and 0.001% Tween20. […] The plates were incubated for 10 min in a humidified incubator at 24° C. Subsequently, 2.5 μL of CD47 peptide substrate surrogate (^19[…]^33) was added to each well (final concentration: 10 μM for QPCTL/20 μM for QPCT). The plates were mixed for 30 sec at 1,000 rpm and subsequently incubated for 40 min in a humidified incubator at 24° C. […] The plates were sealed with an adhesive foil, mixed for 30 s at 1,000 rpm and stored at room temperature until preparation of the MALDI target plates. MALDI target plates were prepared as described previously. […] QPCT or QPCTL activity was monitored by calculating the ratio between product and internal standard signals followed by normalization to high (100% activity) and low (0% activity) controls. Determination of compound potencies was obtained by fitting the dose-response data to a four-parameter logistical equation.

QPCT = biological target: T2, QPCT (Homo sapiens, UniProt Q16769); test: Assay A: biochemical QPCT activity assay (MALDI-TOF MS, CD47 peptide substrate); details: read-out: Inhibition of QPCT: IC50
T2 construct: purchased Origine (OriGene) TP700028
Protocol: as §1

[1] = test system: SIRPα signalling induced by Raji cells; test: Assay B: SIRPα signalling assay using Raji cells; assay type: cell-based; details: Homo sapiens, read-out: Inhibition of SIRPα signalling induced by Raji cells: IC50
Protocol: Bioassay reagent 1 of the PathHunter Bioassay detection kit (DiscoverX 93-0001) was added to each well of the plate using a multichannel pipette followed by a 15 min incubation at room temperature. Afterwards bioassay reagent 2 was added followed by 60 min incubation at room temperature (incubation in the dark).
The analysis of the data was performed using the luminescence signal generated by beta-galactosidase in the PathHunter reporter cell line. The luminescence measurement was done using a Pherastar Multi-Mode Reader.

[2] = test system: SIRPα signalling induced by A549 cells; test: Assay B: SIRPα signalling assay using A549 cells; assay type: cell-based; details: Homo sapiens, read-out: Inhibition of SIRPα signalling induced by A549 cells: IC50
Protocol: Two cell types are independently used: the Raji cell line (lymphoblast-like human cell line derived from B lymphocytes from a Burkitt's lymphoma patient in 1963) and A549 cells (adenocarcinoma human alveolar basal epithelial cells).
Test compounds were dissolved in 100% DMSO and serially diluted into a white 384-well microtiter cell culture plate (PerkinElmer #60076780 in case of Raji assay; PDL-coated plates Greiner #781945 in case of A549 assay). 5000 Raji cells (ATCC #CC86) or 5000 A549 cells (ATCC #CCL-185) in Assay Complete Cell Plating reagent 30 (DiscoverX 93-0563R30B) were added per well. The assay plate was incubated for 48 h at 37° C., 95% humidity and 5% CO2. 15000 reporter cells (Jurkat PathHunter SIRPαV1, DiscoverX #93-1135C19) were added to each well, and the plate was incubated for 5 h at 37° C., 95% humidity and 5% CO2. Bioassay reagent 1 of the PathHunter Bioassay detection kit (DiscoverX 93-0001) was added to each well of the plate using a multichannel pipette followed by a 15 min incubation at room temperature. Afterwards bioassay reagent 2 was added followed by 60 min incubation at room temperature (incubation in the dark).
The analysis of the data was performed using the luminescence signal generated by beta-galactosidase in the PathHunter reporter cell line. The luminescence measurement was done using a Pherastar Multi-Mode Reader. Dose-response curves & IC50 data were calculated with 4-parameter sigmoidal dose response formula.

[3] = Assay C: permeability in CACO-2 cells; assay type: in vitro ADME; details: human; for efflux ratio: read-out: Efflux Ratio
Protocol: Caco-2 cells (1-2×10^5 cells/1 cm^2 area) are seeded on filter inserts (Costar transwell polycarbonate or PET filters, 0.4 μm pore size) and cultured (DMEM) for 10 to 25 days. Compounds are dissolved in appropriate solvent (like DMSO, 1-20 mM stock solutions). […] The transport solution (TL) is applied to the apical or basolateral donor side for measuring A-B or B-A permeability (3 filter replicates), respectively. Samples are collected at the start and end of experiment from the donor and at various time intervals for up to 2 hours also from the receiver side for concentration measurement by HPLC-MS/MS or scintillation counting. Sampled receiver volumes are replaced with fresh receiver solution.
Efflux ratio (ER)=permeability B−A/permeability A−B

CYP3A4 mRNA = test: Assay D: CYP induction screening assay in primary human hepatocytes; assay type: in vitro ADME; details: 48 h
Protocol: Cryopreserved plateable human hepatocytes (single donor. BioIVT) were thawed and plated in Collagen-I coated 96-well-plates at a cell density of 0.07 million cells per well.
After a 6 h attachment period, the seeding medium was replaced by serum-free William's medium E supplemented with Matrigel (0.25 mg/ml) and allowed to recover overnight. 24 h post-seeding, serum-free Williams E medium containing the test compound at a final concentration of […] and a final DMSO content of 0.1% and 0.1% DMSO (solvent-treated control), respectively, was added to predefined wells. Exposure solutions were renewed after 24 h.
After 48 h of treatment in total, the effect of the test compounds on CYP3A4 mRNA expression was assessed using the QuantiGene Plex Gene Expression Assay. Hepatocytes were lysed and total RNA was extracted using the QuantiGene Sample Processing Kit according to the instructions of the manufacturer.
mRNA quantification was conducted using a customized QuantiGene Plex Panel to analyse CYP3A4 and the housekeeper genes RPL32, EIF4E2 and GUSB according to the instructions of the manufacturer and measured on a Luminex™ instrument. Signal was reported as median fluorescence intensity (MFI), which is proportional to the number of target RNA molecules present in the sample.
For calculation of CYP3A4 mRNA induction, the signal for CYP3A4 was normalized against the geometric mean of the signal obtained for the housekeeper genes for hepatocytes exposed to test compounds in relation to solvent-treated samples according to the following equation: […]

murine hepatocytes = test: Assay E: stability in murine hepatocytes; assay type: in vitro ADME, mouse; details: 1 μM, 5% species serum
Protocol: The metabolic degradation of the test compound is assayed in a murine hepatocyte suspension.
Murine hepatocytes (typically cryopreserved) are incubated in an appropriate buffer system (e.g. Dulbecco's modified eagle medium plus 3.5 μg glucagon/500 mL, 2.5 mg insulin/500 mL and 3.75 mg/500 mL hydrocortison) containing 5% species serum.
Following a (typically) 30 min preincubation in an incubator (37° C., 10% CO2) 5 μl of test compound solution (80 μM; from 2 mM in DMSO stock solution diluted 1:25 with medium) are added into 395 μl hepatocyte suspension (cell density in the range 0.25-5 Mio cells/mL, typically 1 Mio cells/mL; final concentration of test compound 1 μM, final DMSO concentration 0.05%).
The cells are incubated for six hours (incubator, orbital shaker) and samples (25 μl) are taken at 0, 0.5, 1, 2, 4 and 6 hours. Samples are transferred into acetonitrile and pelleted by centrifugation (5 min). The supernatant is transferred to a new 96-deepwell plate, evaporated under nitrogen and resuspended.
Decline of parent compound is analyzed by HPLC-MS/MS
CLint is calculated as follows CL_[…]=Dose/AUC=(C0/CD)/(AUD+clast/k)×1000/60. C0: initial concentration in the incubation [μM], CD: cell density of vital cells [10e6 cells/mL], AUD: area under the data [μM×h], clast: concentration of last data point [μM], k: slope of the regression line for parent decline [h−1].
The calculated in vitro hepatic intrinsic clearance can be scaled up to the intrinsic in vivo hepatic Clearance and used to predict hepatic in vivo blood clearance (CL) by the use of a liver model (well stirred model).
[formula] [formula] [formula] • Hepatocellularity, mouse: 120×10e6 cells/g liver • Liver factor, mouse: 55 g/kg bodyweight • Blood flow, mouse: 90 ml/(min×kg)

[4] = Table 2, compounds of the invention
[5] = Table 4, compounds of the invention
[6] = pH 7.2, Table 7, compounds of the invention, CACO-2 cells
[7] = pH 7.2, Table 7, compounds of the invention, CACO-2 cells, permeability B-A/permeability A-B
[8] = Table 9, compounds of the invention
[9] = Table 12, compounds of the invention

T2 sequence (Q16769 29-361): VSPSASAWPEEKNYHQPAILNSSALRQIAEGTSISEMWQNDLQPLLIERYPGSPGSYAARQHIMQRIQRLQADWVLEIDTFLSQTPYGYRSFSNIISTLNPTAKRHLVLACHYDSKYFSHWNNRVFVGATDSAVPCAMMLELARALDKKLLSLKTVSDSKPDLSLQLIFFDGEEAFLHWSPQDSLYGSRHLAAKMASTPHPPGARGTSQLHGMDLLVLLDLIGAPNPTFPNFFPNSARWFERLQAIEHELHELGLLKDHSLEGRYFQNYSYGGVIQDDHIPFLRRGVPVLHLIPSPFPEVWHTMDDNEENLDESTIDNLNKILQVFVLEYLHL
T1 sequence (Q9NXS2 whole entry, species assumed): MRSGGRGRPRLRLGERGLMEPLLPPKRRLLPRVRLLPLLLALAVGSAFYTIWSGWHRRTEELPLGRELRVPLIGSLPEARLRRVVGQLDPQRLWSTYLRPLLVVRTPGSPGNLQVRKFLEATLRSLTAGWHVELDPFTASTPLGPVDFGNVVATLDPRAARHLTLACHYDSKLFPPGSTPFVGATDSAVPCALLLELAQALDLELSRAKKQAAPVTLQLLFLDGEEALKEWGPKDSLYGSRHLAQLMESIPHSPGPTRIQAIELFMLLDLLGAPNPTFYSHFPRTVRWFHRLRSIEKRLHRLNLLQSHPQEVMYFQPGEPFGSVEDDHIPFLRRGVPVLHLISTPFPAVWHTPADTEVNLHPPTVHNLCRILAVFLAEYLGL

SMILES | IC50 (QPCTL; [4]) [nM] | IC50 (QPCT; [4]) [nM] | IC50 [1, 5] [nM] | IC50 [2, 5] [nM] | Papp A→B [3, 6] [×10⁻⁶ cm/s] | efflux ratio [3, 7] | n-fold induction of CYP3A4 at 10 μM (CYP3A4 mRNA; [8]) [n-fold] | Mouse Hepatocyte Stability QH (murine hepatocytes; [9]) [%] | IC50 (QPCTL; Table 3, prior art compounds) [nM] | IC50 (QPCT; Table 3, prior art compounds) [nM] | IC50 ([1]; Table 5, prior art compounds) [nM] | IC50 ([2]; Table 5, prior art compounds) [nM] | Papp A→B ([3]; Caco-2, pH 7.2) [×10⁻⁶ cm/s] | efflux ratio ([3]; Caco-2, pH 7.2) | n-fold induction of CYP3A4 at 10 μM (CYP3A4 mRNA; Table 10, prior art compounds) [n-fold] | Mouse Hepatocyte Stability QH (murine hepatocytes; Table 13, prior art compounds) [%]
Cc1ncc(-c2cc(C#N)c(N3CCC(F)(c4nncn4C)CC3)c(-c3cnc4nn(C(F)(F)F)cc4c3)n2)cn1 [Example 25] | 3 | 3 | 181 | 52 | 3.1 | 16.8 | 0.8 | 38 |  |  |  |  |  |  |  | 
Cn1cnnc1C1CCN(c2c(C#N)cccc2-c2ccc3nonc3c2)CC1 [Compound 19, reference compound] |  |  |  |  |  |  |  |  | 117 | 106 | 2810 | 296 | 19 | 3.4 | 15.8 | 62
Cn1cnnc1C1(F)CCN(c2c(C#N)cc(C(C)(F)F)nc2-c2cnc3nn(C)c(C(F)(F)F)c3c2)CC1 [Example 9] | 6 | 5 | 83 | 14 | 14 | 6.4 | 4.2 | 34 |  |  |  |  |  |  |  | 
Cn1cnnc1C1CCN(c2c(C#N)cccc2-c2ccc3ocnc3c2)CC1 [Compound 15, reference compound] |  |  |  |  |  |  |  |  | 554 | 1080 | 5990 | 3150 | 11 | 5.4 | 8.7 | 65
Cc1nn(C)c(C)c1-c1cc(C#N)c(N2CCC(F)(c3nncn3C)CC2)c(-c2cnc3nn(C(F)(F)F)cc3c2)n1 [Example 23] | 1 | 2 | 169 | 43 | 4.1 | 16.3 | 1.1 | <12 |  |  |  |  |  |  |  | 
Cn1cnnc1C1(F)CCN(c2c(C#N)cc(-c3cnc(C(F)(F)F)nc3)nc2-c2cnc3nn(C(F)(F)F)cc3c2)CC1 [Example 20] | 2 | 1 | 618 | 110 | 4.3 | 12.8 | 0.5 | <12 |  |  |  |  |  |  |  | 
Cn1cc(-c2cc(C#N)c(N3CCC(F)(c4nncn4C)CC3)c(-c3cnc4nn(C(F)(F)F)cc4c3)n2)cn1 [Example 24] | 2 | 3 | 73 | 27 | 3.4 | 17.9 | 1.1 | <12 |  |  |  |  |  |  |  | 
Cn1cnnc1C1(F)CCN(c2c(C#N)cc(C3CC3)nc2-c2ccnnc2)CC1 [Example 1] | 1 | 2 | 107 | 15 | 6.3 | 7 | 1.2 | 49 |  |  |  |  |  |  |  | 
